28 compounds from patent US20130338106A1, “COMPOUNDS INHIBITING LEUCINE-RICH REPEAT KINASE ENZYME ACTIVITY” (priority 2011, published 2013) can be followed below.

The term IC50 denotes the midpoint of a concentration-inhibition curve.

T1 sequence (Q5S007 whole entry G2019S): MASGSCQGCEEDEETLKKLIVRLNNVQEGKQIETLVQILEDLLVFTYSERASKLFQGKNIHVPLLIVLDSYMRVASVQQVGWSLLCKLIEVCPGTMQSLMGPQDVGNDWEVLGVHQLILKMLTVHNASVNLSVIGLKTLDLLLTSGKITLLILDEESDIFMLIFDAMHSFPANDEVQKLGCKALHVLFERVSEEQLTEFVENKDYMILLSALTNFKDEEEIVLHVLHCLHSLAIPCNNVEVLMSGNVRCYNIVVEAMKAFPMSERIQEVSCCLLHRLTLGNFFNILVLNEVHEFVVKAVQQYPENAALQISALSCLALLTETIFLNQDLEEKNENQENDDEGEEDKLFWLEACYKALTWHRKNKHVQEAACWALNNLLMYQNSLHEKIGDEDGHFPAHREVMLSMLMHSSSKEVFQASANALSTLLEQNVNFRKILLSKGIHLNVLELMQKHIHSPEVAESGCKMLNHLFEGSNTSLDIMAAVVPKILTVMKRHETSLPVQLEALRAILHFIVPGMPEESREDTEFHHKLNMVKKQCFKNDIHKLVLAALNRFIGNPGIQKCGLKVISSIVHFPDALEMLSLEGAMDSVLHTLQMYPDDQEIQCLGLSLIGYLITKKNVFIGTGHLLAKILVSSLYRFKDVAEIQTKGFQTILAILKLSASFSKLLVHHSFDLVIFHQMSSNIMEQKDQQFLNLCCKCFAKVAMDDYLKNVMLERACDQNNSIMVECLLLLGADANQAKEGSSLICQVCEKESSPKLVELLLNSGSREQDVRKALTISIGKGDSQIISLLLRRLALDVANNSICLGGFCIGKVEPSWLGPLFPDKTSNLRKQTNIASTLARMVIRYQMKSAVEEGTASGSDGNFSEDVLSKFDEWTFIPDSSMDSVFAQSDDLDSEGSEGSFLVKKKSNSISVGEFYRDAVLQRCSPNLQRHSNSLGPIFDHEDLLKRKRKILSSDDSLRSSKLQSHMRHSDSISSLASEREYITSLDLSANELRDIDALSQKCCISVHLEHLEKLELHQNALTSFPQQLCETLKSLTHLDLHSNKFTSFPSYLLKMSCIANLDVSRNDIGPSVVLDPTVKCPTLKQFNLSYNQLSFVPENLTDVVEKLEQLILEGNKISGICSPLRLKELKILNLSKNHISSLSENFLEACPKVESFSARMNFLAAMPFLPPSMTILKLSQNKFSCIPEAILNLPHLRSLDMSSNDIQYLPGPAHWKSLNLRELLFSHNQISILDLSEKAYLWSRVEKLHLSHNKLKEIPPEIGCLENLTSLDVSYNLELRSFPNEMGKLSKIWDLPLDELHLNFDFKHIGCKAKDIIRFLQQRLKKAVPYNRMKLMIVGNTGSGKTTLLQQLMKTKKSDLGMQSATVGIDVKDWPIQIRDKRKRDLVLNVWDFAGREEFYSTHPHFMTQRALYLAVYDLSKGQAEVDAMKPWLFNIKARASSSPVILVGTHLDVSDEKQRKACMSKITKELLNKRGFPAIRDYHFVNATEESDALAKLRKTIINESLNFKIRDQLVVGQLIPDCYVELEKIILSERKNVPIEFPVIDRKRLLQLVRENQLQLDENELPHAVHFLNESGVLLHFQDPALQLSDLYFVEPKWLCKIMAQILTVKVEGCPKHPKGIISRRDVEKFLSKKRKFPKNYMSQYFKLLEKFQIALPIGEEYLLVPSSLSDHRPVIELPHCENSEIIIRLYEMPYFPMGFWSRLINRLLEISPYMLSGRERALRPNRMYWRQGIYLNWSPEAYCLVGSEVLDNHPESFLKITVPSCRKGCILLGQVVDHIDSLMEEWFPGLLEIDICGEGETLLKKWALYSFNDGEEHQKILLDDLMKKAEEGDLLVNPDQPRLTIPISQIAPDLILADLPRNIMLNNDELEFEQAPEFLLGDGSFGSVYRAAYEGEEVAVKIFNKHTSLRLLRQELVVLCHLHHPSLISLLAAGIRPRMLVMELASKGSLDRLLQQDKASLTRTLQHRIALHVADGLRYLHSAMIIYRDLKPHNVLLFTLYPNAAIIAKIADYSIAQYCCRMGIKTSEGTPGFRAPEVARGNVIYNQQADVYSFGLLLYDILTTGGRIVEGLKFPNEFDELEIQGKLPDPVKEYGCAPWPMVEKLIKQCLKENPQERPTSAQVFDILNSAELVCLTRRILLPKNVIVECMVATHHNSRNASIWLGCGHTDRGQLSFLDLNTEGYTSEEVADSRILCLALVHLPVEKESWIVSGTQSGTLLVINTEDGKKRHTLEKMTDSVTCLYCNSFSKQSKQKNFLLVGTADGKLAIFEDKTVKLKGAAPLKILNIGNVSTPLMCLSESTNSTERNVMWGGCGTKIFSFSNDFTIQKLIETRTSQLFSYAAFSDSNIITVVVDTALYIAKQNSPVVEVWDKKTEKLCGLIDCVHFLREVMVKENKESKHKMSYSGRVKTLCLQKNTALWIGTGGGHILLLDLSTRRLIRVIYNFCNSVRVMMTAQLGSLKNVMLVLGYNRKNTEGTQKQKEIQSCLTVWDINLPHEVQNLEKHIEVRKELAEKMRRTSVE

This assay addresses T1, LRRK2 G2019S mutant kinase (Homo sapiens, UniProt Q5S007, G2019S).
T1 construct: GST; purchased Invitrogen PV4882
Description: LRRK2 G2019S LanthaScreen TR-FRET kinase assay. Type of assay: biochemical. The settings on record: LRRK2 G2019S GST-tagged protein, 100 μM ATP, LRRKtide substrate; read-out: IC50 (potency). The procedure: Activity of compounds against LRRK2 G2019S mutant kinase function was tested in a LANTHAScreen® assay as follows: Compounds were diluted in 100% DMSO to the desired test concentrations in white, low-volume 384-well plates (PerkinElmer ProxiPlate® PN: 6008280). TR-FRET kinase reactions (10 μL) were performed with 75 nM Fluorescein-ERM (LRRKtide, Invitrogen, PN:PV4901) substrate in a final assay buffer containing 100 μM ATP and 2 mM DTT diluted in commercially available Kinase Buffer S (Invitrogen PN: PV5213). The final solvent concentration in the assay was 1% DMSO. Reactions were initiated with the addition of 10 ng/well of LRRK2 02019S, GST-tagged protein (Invitrogen PN: PV4882). After incubation of the foil sealed reaction plates at room temperature with low speed mixing for 1 hour, the kinase reaction was stopped and the amount of substrate phosphorylation was detected by addition of 10 μL of 10 mM EDTA and 2 nM Tb-anti-pERM (pLRRKtide antibody, Invitrogen, PN: PV4898) antibody in TR-FRET dilution buffer (Invitrogen PN: PV3574). After a 30 minute incubation at room temperature with low speed mixing, foil seals were removed and measurements were obtained on a PerkinElmer EnVision with excitation 340 nm, emission 520 nm (channel 1): 495 nm (channel 2) settings. Generation of raw data and workup of data to derive the IC50 (potency) and maximal inhibition at concentrations tested were performed using Merck's Assay Data Analyzer (ADA) software.
On the technique in general: Time-resolved FRET reads energy transfer from a long-lived donor to a nearby acceptor.
For the compound `CC1(C)CC(=O)c2c(N[C@H]3CC[C@H](O)CC3)sc(-c3cc[nH]n3)c2C1` [Example 51, 3-[(trans-4-Hydroxycyclohexyl)amino]-6,6-dimethyl-1-(1H-pyrazol-3-yl)-6,7-dihydro-2-benzothiophen-4(5H)-one], the IC50 was 220 nM.

In the case of `CCCNc1sc(-c2cc[nH]n2)c2c1C(=O)CC(C)(C)C2` [Example 35, 6,6-Dimethyl-3-(propylamino)-1-(1H-pyrazol-3-yl)-6,7-dihydro-2-benzothiophen-4(5H)-one], the IC50 was found to be 150 nM.

Turning to `CC1(C)CC(=O)c2c(NCc3ccccn3)sc(-c3cc[nH]n3)c2C1` [Example 48, 6,6-Dimethyl-1-(1H-pyrazol-3-yl)-3-[(pyridin-2-ylmethyl)amino]-6,7-dihydro-2-benzothiophen-4(5H)-one], the IC50 was 620 nM.

On to `CCCCCCSc1sc(-c2cc[nH]n2)c2c1C(=O)CC(C)(C)C2` [Example 34, 3-(Hexylsulfanyl)-6,6-dimethyl-1-(1H-pyrazol-3-yl)-6,7-dihydro-2-benzothiophen-4(5H)-one], for which the IC50 came to 1300 nM.

For `CC1(C)CC(=O)c2c(SCC(O)CO)sc(-c3cc[nH]n3)c2C1` (stereo not shown) [Example 25, 3-[(2,3-Dihydroxypropyl)sulfanyl]-6,6-dimethyl-1-(1H-pyrazol-3-yl)-6,7-dihydro-2-benzothiophen-4(5H)-one], the IC50 came out at 740 nM.

With `Cc1nnc(Sc2sc(-c3cc[nH]n3)c3c2C(=O)CC(C)(C)C3)s1` [Example 32, 6,6-Dimethyl-3-[(5-methyl-1,3,4-thiadiazol-2-yl)sulfanyl]-1-(1H-pyrazol-3-yl)-6,7-dihydro-2-benzothiophen-4(5H)-one], the IC50 amounted to 4000 nM.

Take `CC1(C)CC(=O)c2c(SCC[Si](C)(C)C)sc(-c3cc[nH]n3)c2C1` [Example 31, 6,6-Dimethyl-1-(1H-pyrazol-3-yl)-3-{[2-(trimethylsilyl)ethyl]sulfanyl}-6,7-dihydro-2-benzothiophen-4(5H)-one]: the IC50 stood at 1900 nM.

`CSc1cccc(NC(=O)n2ccc(-c3sc(SC4CCCC4)c4c3CC(C)(C)CC4=O)n2)c1` [Example 61, 3-[3-(Cyclopentylsulfanyl)-6,6-dimethyl-4-oxo-4,5,6,7-tetrahydro-2-benzothiophen-1-yl]-N-[3-(methylsulfanyl)phenyl]-1H-pyrazole-1-carboxamide]: the IC50 amounted to 110 nM.

Turning to `CC1(C)CC(=O)c2c(SC3CCCC3)sc(-c3ccn(C(=O)Nc4cccc(Cl)c4)n3)c2C1` [Example 67, N-(3-Chlorophenyl)-3-[3-(cyclopentylsulfanyl)-6,6-dimethyl-4-oxo-4,5,6,7-tetrahydro-2-benzothiophen-1-yl]-1H-pyrazole-1-carboxamide], the IC50 turned out to be 330 nM.

Consider `CSc1sc(-c2cc(C3CC3)[nH]n2)c2c1C(=O)CC(C)(C)C2` [Example 89, 1-(5-Cyclopropyl-1H-pyrazol-3-yl)-6,6-dimethyl-3-(methylsulfanyl)-6,7-dihydro-2-benzothiophen-4(5H)-one], for which the IC50 came out at 470 nM.

For `O=C1CCCc2c(-c3cc[nH]n3)sc(NC3CCCC3)c21` [Example 4, 3-(Cyclopentylamino)-1-(1H-pyrazol-3-yl)-6,7-dihydro-2-benzothiophen-4(5H)-one], the IC50 was determined as 160 nM.

For the compound `CC1(C)CC(=O)c2c(SCc3ccco3)sc(-c3cc[nH]n3)c2C1` [Example 15, 3-[(Furan-2-ylmethyl)sulfanyl]-6,6-dimethyl-1-(1H-pyrazol-3-yl)-6,7-dihydro-2-benzothiophen-4(5H)-one], the IC50 came to 450 nM.

On to `CC1(C)CC(=O)c2c(OC3CCCC3)sc(-c3cc[nH]n3)c2C1` [Example 52, 3-(Cyclopentyloxy)-6,6-dimethyl-1-(1H-pyrazol-3-yl)-6,7-dihydro-2-benzothiophen-4(5H)-one], for which the IC50 worked out at 300 nM.

For `CC1(C)CC(=O)c2c(NCCc3ccccn3)sc(-c3cc[nH]n3)c2C1` [Example 47, 6,6-Dimethyl-1-(1H-pyrazol-3-yl)-3-{[2-(pyridin-2-yl)ethyl]amino}-6,7-dihydro-2-benzothiophen-4(5H)-one], the IC50 came to 290 nM.

For the compound `CN(C)c1sc(-c2cc[nH]n2)c2c1C(=O)CC(C)(C)C2` [Example 41, 3-(Dimethylamino)-6,6-dimethyl-1-(1H-pyrazol-3-yl)-6,7-dihydro-2-benzothiophen-4(5H)-one], the IC50 was 2000 nM.

As for `CC1(C)CC(=O)c2c(SC3CCCC3)sc(-c3ccn(C(=O)NCCc4ccccc4)n3)c2C1` [Example 69, 3-[3-(Cyclopentylsulfanyl)-6,6-dimethyl-4-oxo-4,5,6,7-tetrahydro-2-benzothiophen-1-yl]-N-(2-phenylethyl)-1H-pyrazole-1-carboxamide], the IC50 worked out at 4200 nM.

As for `CC1(C)CC(=O)c2c(SC3CCCC3)sc(-c3ccn(C(=O)c4ccc(F)c(F)c4)n3)c2C1` [Example 84, 3-(Cyclopentylsulfanyl)-1-{1-[(3,4-difluorophenyl)carbonyl]-1H-pyrazol-3-yl}-6,6-dimethyl-6,7-dihydro-2-benzothiophen-4(5H)-one], the IC50 was 400 nM.

In the case of `CCC(C)CSc1sc(-c2cc[nH]n2)c2c1C(=O)CC(C)(C)C2` (stereo not shown) [Example 18, 6,6-Dimethyl-3-[(2-methylbutyl)sulfanyl]-1-(1H-pyrazol-3-yl)-6,7-dihydro-2-benzothiophen-4(5H)-one], the IC50 is 220 nM.

For `CCCSc1sc(-c2cc[nH]n2)c2c1C(=O)CC(C)(C)C2` [Example 28, 6,6-Dimethyl-3-(propylsulfanyl)-1-(1H-pyrazol-3-yl)-6,7-dihydro-2-benzothiophen-4(5H)-one], the IC50 amounted to 160 nM.

With `CC1(C)CC(=O)c2c(SCCO)sc(-c3cc[nH]n3)c2C1` [Example 10, 3-[(2-Hydroxyethyl)sulfanyl]-6,6-dimethyl-1-(1H-pyrazol-3-yl)-6,7-dihydro-2-benzothiophen-4(5H)-one], the IC50 was 240 nM.

For the compound `CC1(C)CC(=O)c2c(NC3CC3)sc(-c3cc[nH]n3)c2C1` [Example 46, 3-(Cyclopropylamino)-6,6-dimethyl-1-(1H-pyrazol-3-yl)-6,7-dihydro-2-benzothiophen-4(5H)-one], the IC50 was found to be 210 nM.

Take `CS(=O)(=O)c1sc(-c2cc[nH]n2)c2c1C(=O)CCC2` [Example 2, 3-(Methylsulfonyl)-1-(1H-pyrazol-3-yl)-6,7-dihydro-2-benzothiophen-4(5H)-one]: the IC50 was 3500 nM.

Take `CCCc1sc(-c2cc[nH]n2)c2c1C(=O)CC(C)(C)C2` [Example 56, 6,6-Dimethyl-3-propyl-1-(1H-pyrazol-3-yl)-6,7-dihydro-2-benzothiophen-4(5H)-one]: the IC50 amounted to 2200 nM.

For the compound `COc1ccccc1NC(=O)n1ccc(-c2sc(SC3CCCC3)c3c2CC(C)(C)CC3=O)n1` [Example 66, 3-[3-(Cyclopentylsulfanyl)-6,6-dimethyl-4-oxo-4,5,6,7-tetrahydro-2-benzothiophen-1-yl]-N-(2-methoxyphenyl)-1H-pyrazole-1-carboxamide], the IC50 turned out to be 110 nM.

On to `CC(C)CSc1sc(-c2cc[nH]n2)c2c1C(=O)CC(C)(C)C2` [Example 26, 6,6-Dimethyl-3-[(2-methylpropyl)sulfanyl]-1-(1H-pyrazol-3-yl)-6,7-dihydro-2-benzothiophen-4(5H)-one], for which the IC50 is 120 nM.

Consider `CC(=O)NCCCCCCSc1sc(-c2cc[nH]n2)c2c1C(=O)CC(C)(C)C2` [Example 23, N-(6-{[5,5-Dimethyl-7-oxo-3-(1H-pyrazol-3-yl)-4,5,6,7-tetrahydro-2-benzothiophen-1-yl]sulfanyl}hexyl)acetamide], for which the IC50 amounted to 180 nM.

Take `CC(C)C(=O)n1ccc(-c2sc(SC3CCCC3)c3c2CC(C)(C)CC3=O)n1` [Example 78, 3-(Cyclopentylsulfanyl)-6,6-dimethyl-1-[1-(2-methylpropanoyl)-1H-pyrazol-3-yl]-6,7-dihydro-2-benzothiophen-4(5H)-one]: the IC50 was determined as 1500 nM.

Regarding `CC1(C)CC(=O)c2c(SCCCCl)sc(-c3cc[nH]n3)c2C1` [Example 33, 3-[(3-Chloropropyl)sulfanyl]-6,6-dimethyl-1-(1H-pyrazol-3-yl)-6,7-dihydro-2-benzothiophen-4(5H)-one], the IC50 stood at 120 nM.
